Experimental data from patent publication US20100168176A1, “NOVEL COMPOUNDS, PHARMACEUTICAL COMPOSITIONS CONTAINING SAME, AND METHODS OF USE FOR SAME” (FASGEN LLC, priority 2006, published 2010).
In brackets after ≈: the same amount, converted by molar mass.

Tests used:
[1] = test system: FAO; assay: FAO SC 150 / FAO Max; details: for FAO Max: at the concentration given under E18
[2] = test system: OV; assay: XTT cytotoxicity assay, OV; format: cell-based
[3] = test system: MCF-7 human breast cancer cells; assay: XTT cytotoxicity assay, MCF-7 (M); format: cell-based; details: Homo sapiens, MCF7; (M) or no code; MCF-7, 72 hours
Method: The XTT assay is a non-radioactive alternative for the [^51Cr] release cytotoxicity assay. XTT is a tetrazolium salt that is reduced to a formazan dye only by metabolically active, viable cells. The reduction of XTT is measured spectrophotometrically as OD490-OD650.
To measure the cytotoxicity of specific compounds against cancer cells, 9×10^3 MCF-7 human breast cancer cells, obtained from the American Type Culture Collection are plated per well in 96 well plates in DMEM medium with 10% fetal bovine serum, insulin, penicillin, and streptomycin. Following overnight culture at 37° C. and 5% CO2, the compounds to be tested, dissolved in DMSO, are added to the wells in 1 μl volume at the following concentrations: 80, 40, 20, 10, 5, 2.5, 1.25, and 0.625 μg/ml in triplicate. Additional concentrations are tested if required. 1 μl of DMSO is added to triplicate wells are the vehicle control. C75 is run at 40, 20, 10, […], 10, and 5 in triplicate as positive controls.
After 72 hours of incubation, cells are incubated for 4 hours with the XTT reagent as per manufacturer's instructions (Cell Proliferation Kit II (XTT) Roche). Plates are read at OD490 and OD650 on a Molecular Devices SpectraMax Plus Spectrophotometer. Three wells containing the XTT reagent without cells serve as the plate blank. XTT data are reported as OD490-OD650. Averages and standard error of the mean are computed using SOFTmax Pro software ([…]).
The IC50 for the compounds is defined as the concentration of drug leading to a 50% reduction in OD400-OD650 compared to controls. The OD400-OD650 are computed by the SOFTmax PRO software (Molecular Devices) for each compound concentration. IC50 is calculated by linear regression, plotting the FAS activity as percent of control versus drug concentrations. Linear regression, best-fit line, r^2, and 95% confidence intervals are determined using Prism Version 3.0 (Graph Pad Software).

[4] = target: T1, purified human FAS (Homo sapiens, UniProt P49327); assay: FAS enzymatic activity (malonyl-CoA dependent NADPH oxidation, OD340); format: biochemical; details: purified human FAS from ZR-75-1 cells
T1 construct: Human FAS was purified from cultured ZR-75-1 human breast cancer cells; endogenous in cells; host or cells: ZR-75-1 human breast cancer cells (ATCC); Purified by hypotonic lysis, PEG precipitations and Mono Q anion exchange
Method: Purification of FAS from ZR-75-1 Human Breast Cancer Cells.
Human FAS was purified from cultured ZR-75-1 human breast cancer cells obtained from the American Type Culture Collection. The procedure, adapted from Linn et al., 1981, and Kuhajda et al., 1994, utilizes hypotonic lysis, successive polyethyleneglycol (PEG) precipitations, and anion exchange chromatography. ZR-75-1 cells are cultured at 37° C. with 5% CO2 in RPMI culture medium with 10% fetal bovine serum, penicillin and streptomycin.
Ten T150 flasks of confluent cells are lysed with 1.5 ml lysis buffer (20 mM Tris-HCl, pH 7.5, 1 mM EDTA, 0.1 mM phenylmethanesulfonyl fluoride (PMSF), 0.1% Igepal CA-630) and dounce homogenized on ice for 20 strokes. The lysate is centrifuged in JA-20 rotor (Beckman) at 20,000 rpm for 30 minutes at 4° C. and the supernatant is brought to 42 ml with lysis buffer. A solution of 50% PEG 8000 in lysis buffer is added slowly to the supernatant to a final concentration of 7.5%. After rocking for 60 minutes at 4° C., the solution is centrifuged in JA-20 rotor (Beckman) at 15,000 rpm for 30 minutes at 4° C. Solid PEG 8000 is then added to the supernatant to a final concentration of 15%. After the rocking and centrifugation is repeated as above, the pellet is resuspended overnight at 4° C. in 10 ml of Buffer A (20 mM K2HPO4, pH 7.4). […] FAS protein concentration is determined using the Coomassie Plus Protein Assay Reagent (Pierce) according to manufacturer's specifications using BSA as a standard. […]
FAS activity is measured by monitoring the malonyl-CoA dependent oxidation of NADPH spectrophotometrically at OD340 in 96-well plates (Dils et al and Arslanian et al, 1975). […]
The assay is performed on a Molecular Devices SpectraMax Plus Spectrophotometer. […] Using the kinetic protocol, the wells are blanked on duplicate wells containing 100 μl of 100 mM K2HPO4, pH 6.5 and the plate is read at OD340 at 10 sec intervals for 5 minutes to measure any malonyl-CoA independent oxidation of NADPH. […] The plate is read again as above with the kinetic protocol to measure the malonyl-CoA dependent NADPH oxidation. […]

T1 sequence (P49327 whole entry): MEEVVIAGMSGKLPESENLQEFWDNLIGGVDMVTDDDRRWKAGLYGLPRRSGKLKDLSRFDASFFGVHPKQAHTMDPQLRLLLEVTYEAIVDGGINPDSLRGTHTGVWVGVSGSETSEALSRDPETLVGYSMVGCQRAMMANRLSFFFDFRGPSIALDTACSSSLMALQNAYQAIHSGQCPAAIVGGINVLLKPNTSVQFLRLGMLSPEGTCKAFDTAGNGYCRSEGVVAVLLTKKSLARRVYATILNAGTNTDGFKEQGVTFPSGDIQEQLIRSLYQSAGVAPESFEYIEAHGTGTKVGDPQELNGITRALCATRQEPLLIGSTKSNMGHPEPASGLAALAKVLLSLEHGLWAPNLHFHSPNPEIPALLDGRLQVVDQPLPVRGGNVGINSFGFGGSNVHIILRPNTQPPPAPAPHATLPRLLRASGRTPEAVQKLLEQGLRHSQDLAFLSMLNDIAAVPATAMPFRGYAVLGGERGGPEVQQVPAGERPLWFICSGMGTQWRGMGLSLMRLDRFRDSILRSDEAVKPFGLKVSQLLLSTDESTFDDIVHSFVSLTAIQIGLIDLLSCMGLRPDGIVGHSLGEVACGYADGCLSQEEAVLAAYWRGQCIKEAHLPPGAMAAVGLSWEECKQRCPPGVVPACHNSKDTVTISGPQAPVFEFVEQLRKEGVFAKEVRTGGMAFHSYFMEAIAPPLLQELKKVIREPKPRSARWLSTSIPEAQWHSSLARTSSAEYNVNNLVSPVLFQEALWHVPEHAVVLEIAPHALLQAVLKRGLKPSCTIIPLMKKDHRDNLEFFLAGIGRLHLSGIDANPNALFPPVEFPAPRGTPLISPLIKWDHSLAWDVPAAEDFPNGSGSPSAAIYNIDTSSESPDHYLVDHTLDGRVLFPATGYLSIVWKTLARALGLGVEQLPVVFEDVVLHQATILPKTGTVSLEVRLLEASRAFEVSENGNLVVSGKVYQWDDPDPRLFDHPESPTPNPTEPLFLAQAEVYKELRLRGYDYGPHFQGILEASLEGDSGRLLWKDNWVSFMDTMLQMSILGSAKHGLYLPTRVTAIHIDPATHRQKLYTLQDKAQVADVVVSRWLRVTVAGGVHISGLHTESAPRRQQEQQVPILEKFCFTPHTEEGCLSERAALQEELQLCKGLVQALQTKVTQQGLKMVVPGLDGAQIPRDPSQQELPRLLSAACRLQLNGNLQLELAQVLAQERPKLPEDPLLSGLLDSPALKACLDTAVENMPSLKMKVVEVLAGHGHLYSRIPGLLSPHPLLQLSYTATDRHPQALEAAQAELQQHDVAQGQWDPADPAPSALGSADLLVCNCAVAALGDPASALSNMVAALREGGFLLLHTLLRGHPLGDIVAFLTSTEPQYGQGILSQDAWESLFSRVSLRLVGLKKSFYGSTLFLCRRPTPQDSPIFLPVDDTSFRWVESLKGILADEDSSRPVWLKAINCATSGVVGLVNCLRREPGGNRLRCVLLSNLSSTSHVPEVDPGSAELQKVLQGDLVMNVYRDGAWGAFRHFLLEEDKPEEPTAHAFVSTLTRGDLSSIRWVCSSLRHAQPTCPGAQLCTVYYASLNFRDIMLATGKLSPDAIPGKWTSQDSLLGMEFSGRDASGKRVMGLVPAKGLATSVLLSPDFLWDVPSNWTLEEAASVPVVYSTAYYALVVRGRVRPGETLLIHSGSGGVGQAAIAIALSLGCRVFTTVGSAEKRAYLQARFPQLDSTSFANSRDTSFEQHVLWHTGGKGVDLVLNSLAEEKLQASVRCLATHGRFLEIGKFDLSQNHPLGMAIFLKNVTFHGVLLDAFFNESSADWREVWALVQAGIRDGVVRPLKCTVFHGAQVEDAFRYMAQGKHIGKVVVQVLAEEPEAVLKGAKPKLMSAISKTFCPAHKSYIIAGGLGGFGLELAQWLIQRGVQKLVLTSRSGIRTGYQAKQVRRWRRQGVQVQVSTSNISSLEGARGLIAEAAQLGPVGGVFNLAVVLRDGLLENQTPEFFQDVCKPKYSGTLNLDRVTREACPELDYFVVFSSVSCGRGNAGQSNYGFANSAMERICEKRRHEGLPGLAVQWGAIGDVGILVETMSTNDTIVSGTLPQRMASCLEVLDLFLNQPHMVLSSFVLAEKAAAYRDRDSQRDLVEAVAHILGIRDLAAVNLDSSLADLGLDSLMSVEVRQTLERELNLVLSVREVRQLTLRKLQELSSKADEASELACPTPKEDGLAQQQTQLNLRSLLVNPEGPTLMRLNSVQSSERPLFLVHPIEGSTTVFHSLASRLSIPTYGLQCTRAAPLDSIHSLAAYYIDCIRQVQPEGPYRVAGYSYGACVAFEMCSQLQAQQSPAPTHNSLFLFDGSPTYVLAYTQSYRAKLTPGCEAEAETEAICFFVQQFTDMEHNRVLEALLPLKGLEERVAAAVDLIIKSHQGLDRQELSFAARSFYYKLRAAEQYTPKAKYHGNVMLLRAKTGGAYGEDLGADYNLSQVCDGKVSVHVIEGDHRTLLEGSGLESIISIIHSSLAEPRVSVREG

| FAS (IC50) [4] | Structure (SMILES) | FAO Max: concentration at which the maximum was seen [1] | FAO SC 150 [1] | FAO Max [1] | IC50 [2] | IC50 [3] |
| --- | --- | --- | --- | --- | --- | --- |
| Neg | CCCCCCCCC1(C)SC(=O)C=C1OCC(=O)NNc1ccccc1Cl (stereo not drawn) [Compound 19, (5-Methyl-5-octyl-2-oxo-thiophen-4-yloxy)-acetic-acid-N′-(2-chlorophenyl)-hydrazide] | 0.125 µg/mL | Neg | 90% @ | 9.4 mg/L (≈ 22.1 µM) | 6.1 ± 0.3 mg/L (≈ 14.4 µM) |
| Neg | CCCCCCCCC1(C)SC(=O)C=C1OCC(=O)NNC(=O)c1ccncc1 (stereo not drawn) [Compound 20] | 0.125 µg/mL | Neg | 89% @ | 33 ± 9.1 mg/L (≈ 78.7 µM) | 22.5 ± 2 mg/L (≈ 53.6 µM) |
